# In PubChem BioAssay (NCI):
# Several values for one entry are separate records, joined by “and”; a condition that tells them apart may be missing. Identical values can stand only once.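 Each compound was tested at five concentrations against cells in 96-well plates for 48 hours. The concentration for 50% growth inhibition is given as GI50. TGI denotes the concentration required for complete inhibition of growth.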
# Tests used:
# Assay in all cases: growth of human tumour cells (NCI), 48 h
# A549 NSCLC = test system: A549 NSCLC
# HOP-62 NSCLC = test system: HOP-62 NSCLC
# IGROV1 ovarian = test system: IGROV1 ovarian
# NCI-H226 lung = test system: NCI-H226 lung
# RPMI-8226 leukemia = test system: RPMI-8226 leukemia
# SF-268 CNS = test system: SF-268 CNS
# SF-295 CNS = test system: SF-295 CNS
# SN12C renal = test system: SN12C renal
# SNB-75 CNS = test system: SNB-75 CNS
# SR leukemia = test system: SR leukemia
Compound,GI50 (A549 NSCLC),TGI (A549 NSCLC),GI50 (HOP-62 NSCLC),TGI (HOP-62 NSCLC),GI50 (IGROV1 ovarian),TGI (IGROV1 ovarian),TGI (NCI-H226 lung),GI50 (RPMI-8226 leukemia),TGI (RPMI-8226 leukemia),GI50 (SF-268 CNS),TGI (SF-268 CNS),GI50 (SF-295 CNS),TGI (SF-295 CNS),GI50 (SN12C renal),TGI (SN12C renal),GI50 (SNB-75 CNS),TGI (SNB-75 CNS),GI50 (SR leukemia),TGI (SR leukemia),GI50 (NCI-H226 lung)
CNc1nc(N(C)C)nc(N(C)C)n1,> 100 µM and 2150 µM,> 100 µM and 3500 µM,> 100 µM and 970 µM,> 100 µM and 1890 µM,> 100 µM and 1100 µM,> 100 µM and 2640 µM,2530 µM,> 100 µM and 1500 µM,> 100 µM and 2940 µM,> 100 µM and 2680 µM,> 100 µM and 6220 µM,> 100 µM and 1130 µM,> 100 µM and 2440 µM,> 100 µM and 2050 µM,> 100 µM and 3960 µM,> 100 µM and 473 µM,> 100 µM and 1980 µM,> 100 µM,> 100 µM,
C=CC(=O)Nc1cccc(C)c1Nc1ncc2cc(-c3c(Cl)c(OC)cc(OC)c3Cl)ccc2n1,7.27 µM,97.4 µM,8.86 µM,50 µM,8.18 µM,26 µM,18.1 µM,1.44 µM,7.54 µM,3.69 µM,38.6 µM,3.26 µM,> 100 µM,5.87 µM,> 100 µM,2.57 µM,44.9 µM,2.75 µM,> 100 µM,3.18 µM
COCCNC(=O)c1ccc(-c2nc3ccc4[nH]ncc4c3c3c2CCCC3)cc1,2.13 µM,> 100 µM,0.969 µM,39.5 µM,1.24 µM,10.9 µM,> 100 µM,1.74 µM,7.03 µM,2.22 µM,39.7 µM,2.7 µM,47.7 µM,2.61 µM,91.7 µM,2.01 µM,6.24 µM,0.558 µM,6.2 µM,2.47 µM
CC(=O)c1c[nH]cc1CO,,> 10 µM,,> 10 µM,,> 10 µM,> 10 µM,,> 10 µM,,> 10 µM,,> 10 µM,,> 10 µM,,> 10 µM,,> 10 µM,
CN(C)c1ccc(O)c2c1C[C@H]1C[C@H]3[C@H](N(C)C)C(=O)C(C(N)=O)=C(O)[C@@]3(O)C(=O)C1=C2O,5.65 µM,> 100 µM,4.01 µM,71.5 µM,3.42 µM,27.8 µM,84.5 µM,4.28 µM,31.1 µM,5.46 µM,> 100 µM,2.46 µM,7.99 µM,4.8 µM,> 100 µM,4.88 µM,68.7 µM,3.48 µM,22.3 µM,8.58 µM
O=C(CCCCCCC(=O)Nc1ccc2c(c1)/C(=C/c1ccc[nH]1)C(=O)N2)NO,2.87 µM,15.2 µM,0.353 µM,4.49 µM,1.61 µM,7.9 µM,12 µM,2.9 µM,> 100 µM,1.05 µM,13.3 µM,1.3 µM,7.51 µM,2.07 µM,26.5 µM,0.194 µM,65.4 µM,0.253 µM,> 100 µM,2.28 µM
N#Cc1nc2cc(F)c(F)cc2nc1-c1ccc(Cl)cc1,39.3 µM,> 100 µM,45 µM,> 100 µM,0.673 µM,2.31 µM,> 63.2 µM,6.17 µM,> 100 µM,8.07 µM,30.2 µM,12.2 µM,38.9 µM,6.83 µM,34.8 µM,33.1 µM,83.1 µM,1.7 µM,4.35 µM,3.44 µM
COc1ccc2c(c1)OC(N)=C(C#N)C2c1ccc(F)cc1 (centres undefined),4.94 µM,> 100 µM,0.986 µM,> 100 µM,2.38 µM,> 100 µM,> 100 µM,2.43 µM,19.9 µM,7.38 µM,> 100 µM,1.96 µM,37.2 µM,6.82 µM,> 100 µM,1.4 µM,13.3 µM,0.51 µM,> 100 µM,20.7 µM
COC(=O)[C@@]1(O)C[C@H]2O[C@]1(C)n1c3ccccc3c3c4c(c5c6ccccc6n2c5c31)C(=O)NC4,0.24 µM,2.85 µM,0.169 µM,1.81 µM,0.17 µM,3.28 µM,1.72 µM,0.0784 µM,1.33 µM,0.63 µM,3.17 µM,0.661 µM,2.31 µM,0.074 µM,2.15 µM,0.185 µM,1.04 µM,0.0686 µM,1.75 µM,0.32 µM
Cc1ccc(N2C(=O)/C(=C/c3ccc(N(CCC#N)CCC#N)cc3C)N=C2c2cc([N+](=O)[O-])ccc2Cl)cc1,,> 100 µM,,> 100 µM,,> 100 µM,> 100 µM,,> 100 µM,,> 100 µM,,> 100 µM,,> 100 µM,,> 100 µM,,> 100 µM,
OC(CNc1ccnc2cc(Cl)ccc12)CNC1CCCCC1 (centres undefined),8.12 µM,21.7 µM,12.3 µM,26.3 µM,10.1 µM,24.4 µM,34.9 µM,10.1 µM,36.4 µM,8.23 µM,21.9 µM,2.13 µM,4.9 µM,12 µM,48.4 µM,2.1 µM,8.31 µM,1.95 µM,5.13 µM,12.9 µM
Clc1ccc2c(c1)-c1ccccc1C1=NCCN12,1.53 µM,3.77 µM,1.98 µM,6.02 µM,2.14 µM,5.36 µM,3.53 µM,1.91 µM,4.36 µM,1.91 µM,5.42 µM,2.12 µM,6.34 µM,2.41 µM,12.6 µM,1.62 µM,5.42 µM,1.55 µM,4.13 µM,1.45 µM
CCCCCCCCCCCC[n+]1ccc(C(N)=O)cc1,10.1 µM,26.2 µM,2.84 µM,10.2 µM,1.4 µM,3.5 µM,16.3 µM,1.34 µM,4.86 µM,2.78 µM,11.5 µM,2.8 µM,11.6 µM,3.61 µM,12.6 µM,2.08 µM,6.61 µM,4.67 µM,> 100 µM,3.43 µM
CC(C)(c1ccc(OC#N)cc1)c1ccc(OC#N)cc1,,> 100 µM,,> 100 µM,,> 100 µM,> 100 µM,,> 72.5 µM,,> 100 µM,,> 100 µM,,> 100 µM,,> 94.7 µM,,50.5 µM,
COc1cccc2c(=O)c3c(sc12)c(NCCN(C)C)nc1ccccc13,1.22 µM,2.8 µM,1.2 µM,2.66 µM,1.19 µM,2.7 µM,4.03 µM,1.36 µM,3.17 µM,1.6 µM,3.57 µM,1.65 µM,3.42 µM,1.15 µM,2.58 µM,1.47 µM,8.53 µM,0.612 µM,2.45 µM,1.75 µM
S=C(Nc1ccccc1)N(Cc1ccccc1)c1ccccc1,,> 100 µM,,> 100 µM,,> 100 µM,> 100 µM,,> 100 µM,,> 100 µM,,> 100 µM,,> 100 µM,,> 100 µM,,> 100 µM,
COc1cc(/C=C2/C(=O)NC(Cc3cc(OC)c(OC)c(C)c3OC)C(=O)N2Cc2ccccc2)c(OC)c(C)c1OC (centres undefined),,> 100 µM,,> 100 µM,,> 100 µM,> 100 µM,,91.4 µM,,> 100 µM,,> 100 µM,,> 100 µM,,> 100 µM,,54.1 µM,
Cc1ccc(S(=O)(=O)Nc2nc3ccccc3nc2Nc2ccc3nsnc3c2)cc1,3.68 µM and 3.5 µM,> 100 µM,5.36 µM and 5.68 µM,35.6 µM and > 100 µM,4.16 µM and 2.7 µM,> 100 µM and 59.4 µM,> 100 µM,0.85 µM and 2.64 µM,21.2 µM and > 100 µM,3.93 µM and 4.35 µM,> 100 µM,2.98 µM and 2.36 µM,15.7 µM and 13.3 µM,3.1 µM and 3.04 µM,46.8 µM and > 100 µM,8.81 µM and 3.89 µM,> 100 µM,7.87 µM and 4.49 µM,95.4 µM and > 100 µM,5.38 µM and 7.55 µM
NCCCCN(Cc1nc2ccccc2[nH]1)[C@H]1CCCc2cccnc21,15.2 µM,44.4 µM,11.4 µM,> 100 µM,12.6 µM,> 100 µM,44.4 µM,12 µM,47.6 µM,9.71 µM,97.3 µM,12.8 µM,30.7 µM,14.9 µM,> 100 µM,8.53 µM,> 100 µM,4.52 µM,24.8 µM,12.5 µM
O=C(CN1C(=O)c2ccccc2C1=O)C(O)CN1C(=O)c2ccccc2C1=O (centres undefined),,> 100 µM,,41.9 µM,,> 100 µM,> 100 µM,,> 100 µM,,88.1 µM,,99.8 µM,,> 100 µM,,39.8 µM,,> 100 µM,
